Measurements from article PMC3961306, “Comparison of the Cancer Gene Targeting and Biochemical Selectivities of All Targeted Kinase Inhibitors Approved for Clinical Use” (PLoS ONE, 2014).

How the values were obtained:
Assay in all cases: Kinase profiling in a biochemical assay panel (mobility shift assays and ELISA), %-inhibition at 1 μM; selectivity entropy
[1] = biological target: panel of more than 300 wild-type and mutant kinases (313 kinase panel) (Homo sapiens, UniProt Q96GD4)
[2] = biological target: panel of more than 300 wild-type and mutant kinases (313 kinase panel) (Homo sapiens, UniProt P07949, S891A)
[3] = biological target: panel of more than 300 wild-type and mutant kinases (313 kinase panel) (Homo sapiens, UniProt P10721, D816V)
[4] = biological target: panel of more than 300 wild-type and mutant kinases (313 kinase panel) (Homo sapiens, UniProt P43405)
[5] = biological target: panel of more than 300 wild-type and mutant kinases (313 kinase panel) (Homo sapiens, UniProt P54756)
[6] = biological target: panel of more than 300 wild-type and mutant kinases (313 kinase panel) (Homo sapiens, UniProt P08581, Y1235D)
[7] = biological target: T1, panel of more than 300 wild-type and mutant kinases (313 kinase panel) (Homo sapiens, UniProt O14920)
T1 sequence (O14920 1-756): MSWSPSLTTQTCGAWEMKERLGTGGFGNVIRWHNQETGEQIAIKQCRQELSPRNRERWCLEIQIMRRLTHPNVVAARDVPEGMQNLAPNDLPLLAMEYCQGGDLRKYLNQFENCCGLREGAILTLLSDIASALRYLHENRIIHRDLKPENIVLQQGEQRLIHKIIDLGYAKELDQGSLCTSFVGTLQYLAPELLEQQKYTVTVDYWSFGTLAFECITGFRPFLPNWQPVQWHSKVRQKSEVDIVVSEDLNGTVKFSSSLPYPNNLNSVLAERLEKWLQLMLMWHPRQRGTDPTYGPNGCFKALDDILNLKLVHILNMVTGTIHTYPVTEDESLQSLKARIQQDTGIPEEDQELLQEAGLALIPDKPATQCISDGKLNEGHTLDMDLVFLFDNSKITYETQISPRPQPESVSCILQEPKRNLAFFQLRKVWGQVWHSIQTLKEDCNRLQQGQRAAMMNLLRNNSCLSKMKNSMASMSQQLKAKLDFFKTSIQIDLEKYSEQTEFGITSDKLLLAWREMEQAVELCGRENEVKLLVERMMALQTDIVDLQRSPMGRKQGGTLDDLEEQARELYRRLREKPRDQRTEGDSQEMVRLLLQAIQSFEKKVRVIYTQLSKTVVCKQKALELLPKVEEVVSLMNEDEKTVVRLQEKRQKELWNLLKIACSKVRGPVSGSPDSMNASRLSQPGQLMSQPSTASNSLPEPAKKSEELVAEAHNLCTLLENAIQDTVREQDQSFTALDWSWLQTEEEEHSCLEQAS

[8] = biological target: panel of more than 300 wild-type and mutant kinases (313 kinase panel) (Homo sapiens, UniProt Q13557)
[9] = biological target: panel of more than 300 wild-type and mutant kinases (313 kinase panel) (Homo sapiens, UniProt Q9BYP7)
[10] = biological target: panel of more than 300 wild-type and mutant kinases (313 kinase panel) (Homo sapiens, UniProt P35916)
[11] = biological target: panel of more than 300 wild-type and mutant kinases (313 kinase panel) (Homo sapiens, UniProt Q15418)
[12] = biological target: panel of more than 300 wild-type and mutant kinases (313 kinase panel) (Homo sapiens, UniProt Q9UK32)
[13] = biological target: panel of more than 300 wild-type and mutant kinases (313 kinase panel) (Homo sapiens, UniProt Q9UM73, L1196M)
[14] = kinase KIT(D816V), compound at 1 μM
[15] = kinase MET(Y1235D), compound at 1 μM
[16] = kinase ALK(L1196M), 1 μM compound

## C#Cc1cccc(Nc2ncnc3cc(OCCOC)c(OCCOC)cc23)c1 [erlotinib]
[1]; 1 µM
  %-inhibition, AurB: 25%
[2]; 1 µM
  %-inhibition of RET(S891A): 93%
[3]; 1 µM
  %-inhibition of KIT(D816V): 32%
[4]; 1 µM
  %-inhibition of SYK: 17%
[5]; 1 µM
  %-inhibition of EPHA5: 38%
[6]; 1 µM
  %-inhibition of MET(Y1235D): 22%
[7]; 1 µM
  %-inhibition of IKKβ: 11%
[8]; 1 µM
  %-inhibition, CaMK2δ: -11%
[9]; 1 µM
  %-inhibition of WNK3: 0.315%
[10]; 1 µM
  %-inhibition of FLT4: 75%
[11]; 1 µM
  %-inhibition of RSK1: 9%
[12]; 1 µM
  %-inhibition of RSK4: 8%
[13]; 1 µM
  %-inhibition, ALK(L1196M): 18%

## CO[C@H]1C[C@@H]2CC[C@@H](C)[C@@](O)(O2)C(=O)C(=O)N2CCCC[C@H]2C(=O)O[C@H]([C@H](C)C[C@@H]2CC[C@@H](OCCO)[C@H](OC)C2)CC(=O)[C@H](C)/C=C(\C)[C@@H](O)[C@@H](OC)C(=O)[C@H](C)C[C@H](C)/C=C/C=C/C=C/1C [everolimus]
[1]; kinase AurB, 1 μM compound
  %-inhibition, AurB: -1.39%
[2]; kinase RET(S891A), 1 μM
  %-inhibition of RET(S891A): -3%
[3]; [14]
  %-inhibition of KIT(D816V): -4.44%
[4]; kinase SYK, 1 μM
  %-inhibition of SYK: -2.55%
[5]; kinase EPHA5, compound at 1 μM
  %-inhibition of EPHA5: -1.69%
[6]; [15]
  %-inhibition of MET(Y1235D): -5%
[7]; kinase IKKβ, compound at 1 μM
  %-inhibition of IKKβ: -3%
[8]; kinase CaMK2δ, 1 μM compound
  %-inhibition, CaMK2δ: -2.12%
[9]; kinase WNK3, compound at 1 μM
  %-inhibition of WNK3: -12%
[10]; kinase FLT4, compound at 1 μM
  %-inhibition of FLT4: -0.439%
[11]; kinase RSK1, 1 μM
  %-inhibition of RSK1: -13%
[12]; kinase RSK4, 1 μM
  %-inhibition of RSK4: -8%
[13]; [16]
  %-inhibition, ALK(L1196M): -3.63%

## Cc1cn(-c2cc(NC(=O)c3ccc(C)c(Nc4nccc(-c5cccnc5)n4)c3)cc(C(F)(F)F)c2)cn1 [nilotinib]
[1]; kinase AurB, 1 μM compound
  %-inhibition, AurB: -11%
[2]; 1 µM
  %-inhibition of RET(S891A): 81%
[3]; 1 µM
  %-inhibition of KIT(D816V): 43%
[4]; kinase SYK, 1 μM
  %-inhibition of SYK: 54%
[5]; 1 µM
  %-inhibition of EPHA5: 93%
[6]; [15]
  %-inhibition of MET(Y1235D): -4.56%
[7]; kinase IKKβ, compound at 1 μM
  %-inhibition of IKKβ: -1.78%
[8]; 1 µM
  %-inhibition, CaMK2δ: 1.2%
[9]; kinase WNK3, compound at 1 μM
  %-inhibition of WNK3: -7%
[10]; kinase FLT4, compound at 1 μM
  %-inhibition of FLT4: 17%
[11]; kinase RSK1, 1 μM
  %-inhibition of RSK1: 22%
[12]; kinase RSK4, 1 μM
  %-inhibition of RSK4: 11%
[13]; [16]
  %-inhibition, ALK(L1196M): -42%

## CNC(=O)c1cc(Oc2ccc(NC(=O)Nc3ccc(Cl)c(C(F)(F)F)c3)c(F)c2)ccn1 [regorafenib]
[1]; kinase AurB, 1 μM compound
  %-inhibition, AurB: 20%
[2]; 1 µM
  %-inhibition of RET(S891A): 102%
[3]; [14]
  %-inhibition of KIT(D816V): 40%
[4]; kinase SYK, 1 μM
  %-inhibition of SYK: 3.55%
[5]; kinase EPHA5, compound at 1 μM
  %-inhibition of EPHA5: 97%
[6]; [15]
  %-inhibition of MET(Y1235D): -1.72%
[7]; kinase IKKβ, compound at 1 μM
  %-inhibition of IKKβ: -4.61%
[8]; kinase CaMK2δ, 1 μM compound
  %-inhibition, CaMK2δ: 1.53%
[9]; kinase WNK3, compound at 1 μM
  %-inhibition of WNK3: -10%
[10]; kinase FLT4, compound at 1 μM
  %-inhibition of FLT4: 104%
[11]; kinase RSK1, 1 μM
  %-inhibition of RSK1: 0.165%
[12]; kinase RSK4, 1 μM
  %-inhibition of RSK4: -1.19%
[13]; [16]
  %-inhibition, ALK(L1196M): 0.358%

## CO[C@H]1C[C@@H]2CC[C@@H](C)[C@@](O)(O2)C(=O)C(=O)N2CCCC[C@H]2C(=O)O[C@H]([C@H](C)C[C@@H]2CC[C@@H](OC(=O)C(C)(CO)CO)[C@H](OC)C2)CC(=O)[C@H](C)/C=C(\C)[C@@H](O)[C@@H](OC)C(=O)[C@H](C)C[C@H](C)/C=C/C=C/C=C/1C [temsirolimus]
[1]; kinase AurB, 1 μM compound
  %-inhibition, AurB: -4%
[2]; kinase RET(S891A), 1 μM
  %-inhibition of RET(S891A): -2.19%
[3]; [14]
  %-inhibition of KIT(D816V): -2.12%
[4]; kinase SYK, 1 μM
  %-inhibition of SYK: -13%
[5]; kinase EPHA5, compound at 1 μM
  %-inhibition of EPHA5: -3.79%
[6]; [15]
  %-inhibition of MET(Y1235D): -6.4%
[7]; kinase IKKβ, compound at 1 μM
  %-inhibition of IKKβ: -4.44%
[8]; kinase CaMK2δ, 1 μM compound
  %-inhibition, CaMK2δ: -4%
[9]; kinase WNK3, compound at 1 μM
  %-inhibition of WNK3: -13%
[10]; kinase FLT4, compound at 1 μM
  %-inhibition of FLT4: -0.926%
[11]; kinase RSK1, 1 μM
  %-inhibition of RSK1: -6.45%
[12]; kinase RSK4, 1 μM
  %-inhibition of RSK4: -6%
[13]; [16]
  %-inhibition, ALK(L1196M): -2.81%

## CC(=O)Nc1cccc(-n2c(=O)n(C3CC3)c(=O)c3c(Nc4ccc(I)cc4F)n(C)c(=O)c(C)c32)c1 [trametinib]
[1]; kinase AurB, 1 μM compound
  %-inhibition, AurB: -4%
[2]; kinase RET(S891A), 1 μM
  %-inhibition of RET(S891A): -1.24%
[3]; [14]
  %-inhibition of KIT(D816V): -4%
[4]; kinase SYK, 1 μM
  %-inhibition of SYK: -5%
[5]; kinase EPHA5, compound at 1 μM
  %-inhibition of EPHA5: -2.67%
[6]; [15]
  %-inhibition of MET(Y1235D): -1.5%
[7]; kinase IKKβ, compound at 1 μM
  %-inhibition of IKKβ: 0.741%
[8]; kinase CaMK2δ, 1 μM compound
  %-inhibition, CaMK2δ: -2.19%
[9]; kinase WNK3, compound at 1 μM
  %-inhibition of WNK3: 1%
[10]; kinase FLT4, compound at 1 μM
  %-inhibition of FLT4: 1.51%
[11]; kinase RSK1, 1 μM
  %-inhibition of RSK1: -10%
[12]; kinase RSK4, 1 μM
  %-inhibition of RSK4: 0.208%
[13]; [16]
  %-inhibition, ALK(L1196M): -3.42%

## CCCS(=O)(=O)Nc1ccc(F)c(C(=O)c2c[nH]c3ncc(-c4ccc(Cl)cc4)cc23)c1F [vemurafenib]
[1]; kinase AurB, 1 μM compound
  %-inhibition, AurB: 6%
[2]; kinase RET(S891A), 1 μM
  %-inhibition of RET(S891A): 60%
[3]; [14]
  %-inhibition of KIT(D816V): 17%
[4]; kinase SYK, 1 μM
  %-inhibition of SYK: -3.77%
[5]; kinase EPHA5, compound at 1 μM
  %-inhibition of EPHA5: 14%
[6]; [15]
  %-inhibition of MET(Y1235D): 2.5%
[7]; kinase IKKβ, compound at 1 μM
  %-inhibition of IKKβ: -3.31%
[8]; kinase CaMK2δ, 1 μM compound
  %-inhibition, CaMK2δ: -0.235%
[9]; kinase WNK3, compound at 1 μM
  %-inhibition of WNK3: 53%
[10]; kinase FLT4, compound at 1 μM
  %-inhibition of FLT4: 24%
[11]; kinase RSK1, 1 μM
  %-inhibition of RSK1: -1.32%
[12]; kinase RSK4, 1 μM
  %-inhibition of RSK4: -3%
[13]; [16]
  %-inhibition, ALK(L1196M): 3%
